# Assay results published in US11066365B2, “1-cyano-pyrrolidine compounds as USP30 inhibitors” (Mission Therapeutics Limited, priority 2015, dated 2021).
# Molecular target: USP30 (Homo sapiens (Human), UniProt Q70CQ3)
# Assay: USP30 biochemical IC50 assay (fluorescence polarisation, FP)
# Conditions: USP30 biochemical FP or FI IC50 assay (table does not say which format per compound); read-out: IC50 range
# Method: In Vitro USP30 FP Inhibition Assay
# USP30 Biochemical IC50 Assay
# Dilution plates were prepared at 21 times the final concentration (2100 μM for a final concentration of 100 μM) in 50% DMSO in a 96-well polypropylene V-bottom plate (Greiner #651201). A typical 8-point dilution series would be 100, 30, 10, 3, 1, 0.3, 0.1, 0.03 μM final. Reactions were performed in duplicate in black 384 well plates (small volume, Greiner 784076) in a final reaction volume of 21 μl. Either 1 μl of 50% DMSO or diluted compound was added to the plate. USP30 was diluted in reaction buffer (40 mM Tris, pH 7.5, 0.005% Tween 20, 0.5 mg/ml BSA, 5 mM beta-mercaptoethanol) to the equivalent of 0.05 μl/well and 10 μl of diluted USP30 was added to the compound. Enzyme and compound were incubated for 30 min at room temp. Reactions were initiated by the addition of 50 nM of TAMRA labelled peptide linked to ubiquitin via an iso-peptide bond as fluorescence polarisation substrate. Reactions were read immediately after addition of substrate and following a 2 hr incubation at room temperature. Readings were performed on a Pherastar Plus (BMG Labtech).
# USP30, sequence (Q70CQ3 57-517): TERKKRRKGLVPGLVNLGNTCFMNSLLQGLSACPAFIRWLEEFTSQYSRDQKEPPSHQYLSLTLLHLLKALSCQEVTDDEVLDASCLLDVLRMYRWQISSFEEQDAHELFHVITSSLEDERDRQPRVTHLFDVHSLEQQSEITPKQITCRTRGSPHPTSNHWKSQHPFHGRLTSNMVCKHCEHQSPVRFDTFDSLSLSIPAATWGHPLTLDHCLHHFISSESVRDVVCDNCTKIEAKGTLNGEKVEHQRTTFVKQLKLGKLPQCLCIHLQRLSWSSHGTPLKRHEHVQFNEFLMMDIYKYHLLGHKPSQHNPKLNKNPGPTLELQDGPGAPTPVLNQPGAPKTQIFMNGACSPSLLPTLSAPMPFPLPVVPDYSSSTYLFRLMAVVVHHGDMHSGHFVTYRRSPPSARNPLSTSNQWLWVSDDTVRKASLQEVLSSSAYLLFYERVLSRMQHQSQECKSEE
substance,measurement,value
"rac-(3aR,6aR)-1-(3-phenyl-1H- pyrazole-5- carbonyl)hexahydropyrrolo[3,4- bipyrrole-5(1H)-carbonitrile [Example 52]",IC50,0.1 to 1 µM
